Experimental data as given in PubChem BioAssay AID1963961 (Molecular Pharmacology Branch, DTP, NCI, 2024).

System: K98450-129-R-PDC multicell spheroids, viability
Assay: Anticancer human tumor K98450-129-R-PDC patient-derived colon adenocarcinoma cell line growth inhibition [PI3K]
Conditions: for viability, T/C: stronger effect = lower value
How it was run: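 Three cell types, namely tumor cells, endothelial cells and mesenchymal stem cells, formed each spheroid. Combinations with four PI3K inhibitors were screened at clinically achievable concentrations decreasing by half-log, and spheroid viability was recorded.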

[1] = curve of first compound, second compound 0.0316 µM
[2] = curve of first compound, second compound 0.1 µM
[3] = curve of first compound, second compound 0.316 µM
[4] = curve of first compound, second compound 1 µM
[5] = curve of first compound, second compound 3.16 µM
[6] = curve of first compound, second compound 10 µM
[7] = second compound 0.0316 µM, first compound 0.0316 µM
[8] = second compound 0.0316 µM, first compound 0.1 µM
[9] = second compound 0.0316 µM, first compound 0.316 µM
[10] = second compound 0.0316 µM, first compound 1 µM
[11] = second compound 0.1 µM, first compound 0.0316 µM
[12] = second compound 0.1 µM, first compound 0.1 µM
[13] = second compound 0.1 µM, first compound 0.316 µM
[14] = second compound 0.1 µM, first compound 1 µM
[15] = second compound 0.316 µM, first compound 0.0316 µM
[16] = second compound 0.316 µM, first compound 0.1 µM
[17] = second compound 0.316 µM, first compound 0.316 µM
[18] = second compound 0.316 µM, first compound 1 µM
[19] = second compound 1 µM, first compound 0.0316 µM
[20] = second compound 1 µM, first compound 0.1 µM
[21] = second compound 1 µM, first compound 0.316 µM
[22] = second compound 1 µM, first compound 1 µM
[23] = second compound 3.16 µM, first compound 0.0316 µM
[24] = second compound 3.16 µM, first compound 0.1 µM
[25] = second compound 3.16 µM, first compound 0.316 µM
[26] = second compound 3.16 µM, first compound 1 µM
[27] = second compound 10 µM, first compound 0.0316 µM
[28] = second compound 10 µM, first compound 0.1 µM
[29] = second compound 10 µM, first compound 0.316 µM
[30] = second compound 10 µM, first compound 1 µM
[31] = second compound 0.0316 µM, first compound 3.16 µM
[32] = second compound 0.0316 µM, first compound 10 µM
[33] = second compound 0.1 µM, first compound 3.16 µM
[34] = second compound 0.1 µM, first compound 10 µM
[35] = second compound 0.316 µM, first compound 3.16 µM
[36] = second compound 0.316 µM, first compound 10 µM
[37] = second compound 1 µM, first compound 3.16 µM
[38] = second compound 1 µM, first compound 10 µM
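Also: spheroids exposed to agents for seven days before read-out.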

C=CC(=O)N1CCN(c2nc(=O)n(-c3c(C)ccnc3C(C)C)c3nc(-c4c(O)cccc4F)c(F)cc23)C(C)C1 (configuration not stated)
viability, T/C (compound 0.0316 µM): 104% [middle of 4 runs]
viability, T/C (compound 0.1 µM): 98.4% [middle of 4 runs]
viability, T/C (compound 0.316 µM): 102% [middle of 4 runs]
viability, T/C (compound 3.16 µM): 56% [middle of 4 runs]

CCN1CCN(Cc2ccc(Nc3ncc(F)c(-c4cc(F)c5nc(C)n(C(C)C)c5c4)n3)nc2)CC1 + Cc1nc(NC(=O)N2CCCC2C(N)=O)sc1-c1ccnc(C(C)(C)C(F)(F)F)c1
IC50 [1]: > 1 µM
IC50 [2]: > 1 µM
IC50 [3]: > 1 µM
IC50 [4]: > 1 µM
IC50 [5]: > 1 µM
IC50 [6]: > 1 µM
viability, T/C (second compound 0.0316 µM, first compound 0.00316 µM): 115%
viability, T/C (second compound 0.0316 µM, first compound 0.01 µM): 97.7%
viability, T/C [7]: 106%
viability, T/C [8]: 91.1%
viability, T/C [9]: 86.9%
viability, T/C [10]: 94.8%
viability, T/C (second compound 0.1 µM, first compound 0.00316 µM): 115%
viability, T/C (second compound 0.1 µM, first compound 0.01 µM): 95.9%
viability, T/C [11]: 99.8%
viability, T/C [12]: 93.5%
viability, T/C [13]: 96.8%
viability, T/C [14]: 91.1%
viability, T/C (second compound 0.316 µM, first compound 0.00316 µM): 103%
viability, T/C (second compound 0.316 µM, first compound 0.01 µM): 102%
viability, T/C [15]: 91.1%
viability, T/C [16]: 87.7%
viability, T/C [17]: 85.3%
viability, T/C [18]: 96%
viability, T/C (second compound 1 µM, first compound 0.00316 µM): 98.3%
viability, T/C (second compound 1 µM, first compound 0.01 µM): 89.4%
viability, T/C [19]: 91.2%
viability, T/C [20]: 87.4%
viability, T/C [21]: 84.6%
viability, T/C [22]: 85.6%
viability, T/C (second compound 3.16 µM, first compound 0.00316 µM): 84.8%
viability, T/C (second compound 3.16 µM, first compound 0.01 µM): 80.6%
viability, T/C [23]: 86.2%
viability, T/C [24]: 84.7%
viability, T/C [25]: 79.3%
viability, T/C [26]: 83.5%
viability, T/C (second compound 10 µM, first compound 0.00316 µM): 73.7%
viability, T/C (second compound 10 µM, first compound 0.01 µM): 75.9%
viability, T/C [27]: 70.6%
viability, T/C [28]: 67.5%
viability, T/C [29]: 67%
viability, T/C [30]: 70.4%

C[C@@H](NC(=O)c1ncnc(N)c1Cl)c1ncc(C(=O)Nc2cc(C(F)(F)F)c(Cl)cn2)s1 + CC(Nc1ncnc2nc[nH]c12)c1cc2cccc(Cl)c2c(=O)n1-c1ccccc1
IC50 [1]: > 10 µM
IC50 [2]: > 10 µM
IC50 [3]: > 10 µM
IC50 [4]: > 10 µM
IC50 [5]: > 10 µM
IC50 [6]: > 10 µM
viability, T/C [7]: 113%
viability, T/C [8]: 108%
viability, T/C [9]: 117%
viability, T/C [10]: 124%
viability, T/C [31]: 109%
viability, T/C [32]: 104%
viability, T/C [11]: 123%
viability, T/C [12]: 106%
viability, T/C [13]: 119%
viability, T/C [14]: 108%
viability, T/C [33]: 123%
viability, T/C [34]: 96%
viability, T/C [15]: 107%
viability, T/C [16]: 118%
viability, T/C [17]: 103%
viability, T/C [18]: 108%
viability, T/C [35]: 126%
viability, T/C [36]: 96.1%
viability, T/C [19]: 115%
viability, T/C [20]: 106%
viability, T/C [21]: 102%
viability, T/C [22]: 106%
viability, T/C [37]: 126%
viability, T/C [38]: 86.8%
viability, T/C [23]: 92.3%
viability, T/C [24]: 112%
viability, T/C [25]: 95.8%
viability, T/C [26]: 120%
viability, T/C (second compound 3.16 µM, first compound 3.16 µM): 123%
viability, T/C (second compound 3.16 µM, first compound 10 µM): 101%
viability, T/C [27]: 95.5%
viability, T/C [28]: 106%
viability, T/C [29]: 90.9%
viability, T/C [30]: 103%
viability, T/C (second compound 10 µM, first compound 3.16 µM): 124%
viability, T/C (second compound 10 µM, first compound 10 µM): 78%

CC(Nc1ncnc2nc[nH]c12)c1cc2cccc(Cl)c2c(=O)n1-c1ccccc1 (configuration not stated)
viability, T/C (compound 0.0316 µM): 105% [middle of 8 runs]
viability, T/C (compound 0.1 µM): 98.9% [middle of 8 runs]
viability, T/C (compound 0.316 µM): 103% [middle of 8 runs]
viability, T/C (compound 1 µM): 99.9% [middle of 8 runs]
viability, T/C (compound 3.16 µM): 105% [middle of 8 runs]
viability, T/C (compound 10 µM): 97.6% [middle of 8 runs]
IC50 (compound alone, run of 04/25/2023): > 10 µM

Cn1ncc(Cl)c1-c1cc(C(=O)NC(CN)Cc2cccc(F)c2)sc1Cl (configuration not stated) + CC(Nc1ccc2c(c1)OCCn1cc(N3C(=O)OCC3C(F)F)nc1-2)C(N)=O
IC50 (curve of first compound, second compound 0.00316 µM): > 10 µM
IC50 (curve of first compound, second compound 0.01 µM): > 10 µM
IC50 [1]: > 10 µM
IC50 [2]: > 10 µM
IC50 [3]: > 10 µM
IC50 [4]: > 10 µM
viability, T/C (second compound 0.00316 µM, first compound 0.0316 µM): 106%
viability, T/C (second compound 0.00316 µM, first compound 0.1 µM): 98.2%
viability, T/C (second compound 0.00316 µM, first compound 0.316 µM): 105%
viability, T/C (second compound 0.00316 µM, first compound 1 µM): 95.3%
viability, T/C (second compound 0.00316 µM, first compound 3.16 µM): 93.6%
viability, T/C (second compound 0.00316 µM, first compound 10 µM): 97.2%
viability, T/C (second compound 0.01 µM, first compound 0.0316 µM): 109%
viability, T/C (second compound 0.01 µM, first compound 0.1 µM): 102%
viability, T/C (second compound 0.01 µM, first compound 0.316 µM): 110%
viability, T/C (second compound 0.01 µM, first compound 1 µM): 95.9%
viability, T/C (second compound 0.01 µM, first compound 3.16 µM): 97.6%
viability, T/C (second compound 0.01 µM, first compound 10 µM): 102%
viability, T/C [7]: 109%
viability, T/C [8]: 109%
viability, T/C [9]: 99.4%
viability, T/C [10]: 102%
viability, T/C [31]: 90.3%
viability, T/C [32]: 99.3%
viability, T/C [11]: 88.7%
viability, T/C [12]: 102%
viability, T/C [13]: 103%
viability, T/C [14]: 97.5%
viability, T/C [33]: 97.1%
viability, T/C [34]: 95%
viability, T/C [15]: 85.7%
viability, T/C [16]: 100%
viability, T/C [17]: 95.9%
viability, T/C [18]: 95.6%
viability, T/C [35]: 98.7%
viability, T/C [36]: 92.9%
viability, T/C [19]: 87.1%
viability, T/C [20]: 85.9%
viability, T/C [21]: 91.9%
viability, T/C [22]: 94.4%
viability, T/C [37]: 91%
viability, T/C [38]: 85.7%
